Values of other authors, collected in patent US11504333B2, “Pharmaceutical composition” (NOVARTIS AG, priority 2017, dated 2022).
Entries after “also recorded” stand apart in the source; their conditions may differ. Like-named read-outs stand apart in the source and are kept apart here.

Experiments:
[1] = not given; remark: listed apart in the source

SMILES: CC(C)(C)c1nc(-c2cccc(NS(=O)(=O)c3c(F)cccc3F)c2F)c(-c2ccnc(N)n2)s1.CS(=O)(=O)O [Compound A, N-{3-[5-(2-Amino-4-pyrimidinyl)-2-(1,1-dimethylethyl)-1,3-thiazol-4-yl]-2-fluorophenyl}-2,6-difluorobenzenesulfonamide, methanesulfonate salt]
- Permeability: high permeability
- Solubility (general) ([1]; aqueous, methanesulfonate salt): low solubility; also recorded: poor aqueous solubility
- Solubility ([1]; slightly acidic, neutral pH, and basic media): practically insoluble
- Solubility ([1]; strongly acidic aqueous media): very slightly soluble
